The values below come from patent US9937115B2, “Oral care compositions with improved flavor” (priority 2010, dated 2018).

Counter-ions that a name gives are not always drawn. Like-named read-outs stand apart in the source and are kept apart here. Residues, ends and D or L forms follow the SMILES beside them.

The target of this assay is T1, TRPA1 receptor (Homo sapiens, UniProt O75762).
T1 construct: expressed in transfected cells; host or cells: HEK cell line
The assay is described as follows: cell-based. Also noted: activation: dose or concentration left out as unconfirmed. The protocol: The term “TRPA1 activator” as used herein refers to any component which at a concentration of 1 mM gives a calcium flux count of at least 1000 counts above the background level of calcium present in the cell according to the FLIPR method as discussed herein. The term “count” is defined as the change in fluorescence of the transfected cell lines due to the influx of calcium across the cell membrane, which reacts with the calcium sensitive dye present within the cells.
In order to select TRPA1 agonists that would be preferred for reducing off-tasting chemical components found in oral care compositions, calcium flux receptor activity on the TRPA1 was utilized as the criteria for selection of actives. With allyl isothiocyanate as the TRPA1 positive control, molecules that directly activated the TRPA1 receptor were screened in dimethylsulfoxide (DMSO). Pure molecules of each material were dissolved in DMSO at a concentration of 100 micormolar and then added to an HEK cell line containing the TRPA1 receptor. If they are TRPA1 agonists, they will cause a calcium flux in the cell which fluoresces and may then be measured using a FLIPR machine.

Where [1] appears, read: HEK293, percentage of the control (allyl isothiocyanate) calcium count, material dissolved in DMSO at 100 micromolar, HEK cells with TRPA1, direct addition, read-out: TRPA1 Direct addition.
Setting [2] is: HEK293, percentage of the control (allyl isothiocyanate) calcium count, material dissolved in DMSO at 100 micromolar, HEK cells with TRPA1, pre-incubation, read-out: TRPA1 Pre-incubation.
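For TRPA1 Pre-incubation in this document: values above 100 mean more active than the control.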

T1 sequence (O75762 whole entry): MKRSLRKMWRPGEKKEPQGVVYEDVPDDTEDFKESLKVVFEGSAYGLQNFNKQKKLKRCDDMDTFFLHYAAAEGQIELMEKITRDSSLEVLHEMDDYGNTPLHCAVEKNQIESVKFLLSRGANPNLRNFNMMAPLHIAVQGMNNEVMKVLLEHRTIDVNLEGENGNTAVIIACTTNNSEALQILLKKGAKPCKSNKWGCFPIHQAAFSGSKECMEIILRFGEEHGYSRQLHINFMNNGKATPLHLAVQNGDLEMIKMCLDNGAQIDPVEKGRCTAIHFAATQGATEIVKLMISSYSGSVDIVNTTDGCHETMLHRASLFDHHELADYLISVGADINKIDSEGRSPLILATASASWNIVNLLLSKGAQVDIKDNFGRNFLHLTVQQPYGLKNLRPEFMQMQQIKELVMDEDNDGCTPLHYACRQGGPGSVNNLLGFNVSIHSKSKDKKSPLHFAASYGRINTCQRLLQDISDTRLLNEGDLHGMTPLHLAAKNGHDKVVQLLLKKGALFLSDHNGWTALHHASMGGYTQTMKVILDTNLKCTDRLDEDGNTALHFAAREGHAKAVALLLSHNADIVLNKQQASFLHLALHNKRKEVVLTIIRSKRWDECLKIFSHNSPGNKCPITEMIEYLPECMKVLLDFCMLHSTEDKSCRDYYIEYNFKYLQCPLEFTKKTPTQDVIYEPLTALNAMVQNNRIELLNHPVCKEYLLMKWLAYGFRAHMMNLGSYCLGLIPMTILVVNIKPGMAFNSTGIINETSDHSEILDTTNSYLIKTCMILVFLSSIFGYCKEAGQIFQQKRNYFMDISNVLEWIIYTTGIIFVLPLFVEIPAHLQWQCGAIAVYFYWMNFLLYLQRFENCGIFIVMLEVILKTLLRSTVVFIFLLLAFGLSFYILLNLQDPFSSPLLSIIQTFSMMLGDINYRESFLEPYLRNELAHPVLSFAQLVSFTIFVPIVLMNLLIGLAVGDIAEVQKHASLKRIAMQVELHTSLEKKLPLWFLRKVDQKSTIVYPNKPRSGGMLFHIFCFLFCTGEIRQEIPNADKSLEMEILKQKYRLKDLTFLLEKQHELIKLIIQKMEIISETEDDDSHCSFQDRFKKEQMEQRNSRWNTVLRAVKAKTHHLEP

`CC(=O)C(C)O` (stereo not shown) [Acetoin]: the activation at 100 µM under setting [1] amounted to 0.29%. For the same molecule, the activation under setting [2] worked out at 82.6%.

`C=CCOC(=O)c1ccccc1N` [Allyl anthranilate]: the activation at 100 µM under setting [1] was 0.29%. Also, the activation under setting [2] came to 99.5%.

For the molecule `CC(=O)OC/C=C(\C)CCC=C(C)C` [Geranyl Acetate], under setting [1], the activation at 100 µM amounted to 0.33%. Further, the activation under setting [2] stood at 63.2%.

For `CCCCCCCC=O` [Octanal], under setting [1], the activation at 100 µM is -11%. Moreover, the activation under setting [2] was 87.9%.

Regarding `CCCCCCCC(C)=O` [Material 2-Nonanone, 2-Nonanone], the activation at 100 µM under setting [1] amounted to 0.36%. The activation under setting [2] was 77.2%.

Turning to `CCCCOC(=O)[C@H](C)O` [Butyl L-Lactate], the activation at 100 µM reads like this: under setting [1], -0.66%; under setting [2], 67.3%.

`CC(C)=CCC/C(C)=C/CO` [Geraniol]: the activation at 100 µM under setting [1] stood at 5.19%. Further, the activation under setting [2] came to 113%.

For `CC=CC(=O)C(C)CC` (stereo not shown) [5-Methyl-2-Hepten-4-one], the activation at 100 µM under setting [1] turned out to be 15.5%. In addition, under setting [2], the activation came to 87.8%.

Take `CC(C)=CCCC(C)CCOC=O` (stereo not shown) [Citronellyl Formate]: the activation at 100 µM under setting [1] is -0.57%. For the same molecule, the activation under setting [2] worked out at 89.5%.

On to `C=C1CCC2CC1C2(C)C` (stereo not drawn) [Beta-Pinene], for which the activation at 100 µM under setting [1] is -6.02%. The activation under setting [2] was 73.6%.

On to `CC1=CCC2CC1C2(C)C` (stereo not drawn) [Alpha-Pinene], for which, under setting [1], the activation at 100 µM was -3.07%. The activation under setting [2] came out at 86.6%.

Take `CCCCCC(=Cc1ccccc1)C(OC)OC` [Alpha-Amylcinnamaldehyde Dimethyl acetal]: under setting [1], the activation at 100 µM was -2.4%. The activation under setting [2] was -0.12%.

`CC(=O)OCC(C)C` [Isobutyl Acetate]: the activation at 100 µM under setting [1] was -0.23%. For the same molecule, under setting [2], the activation worked out at 95.7%.

With `CCOC(=O)C(C)O` (stereo not shown) [Ethyl Lactate], the activation at 100 µM under setting [1] is -0.14%. In addition, the activation under setting [2] worked out at 67.4%.

For `COC(=O)[C@H](Cc1ccccc1)NC(=O)[C@@H](N)CC(=O)O` [Aspartame] (H-Asp-Phe-OMe), under setting [1], the activation at 100 µM was -2.15%. In addition, the activation under setting [2] amounted to 80%.

Regarding `O=S(=O)([O-])[O-].[Zn+2]` [Zinc Sulfate], the “TRPA1 Direct addition” value is on record as 29.79% and the “TRPA1 Pre-incubation” value came out at 21.7%.

On to `CCCCCOC(=O)CCC` [Amyl Butyrate], for which the activation at 100 µM under setting [1] is -2.64%. Besides, under setting [2], the activation amounted to 75.9%.

`CCCCCC(=O)O` [Hexanoic Acid]: under setting [1], the activation at 100 µM was -0.4%. Also, the activation under setting [2] stood at 67.2%.

As for `C=CCc1cc(OC)c(O)c(OC)c1` [4-Allyl-2,6-Dimethoxyphenol], the activation at 100 µM under setting [1] was found to be 39.2%. The activation under setting [2] came out at 15.5%.

As to `CCCC/C=C/C=O` [trans-2-Heptenal], the activation at 100 µM under setting [1] came out at 95.9%. Also, under setting [2], the activation was -3.74%.

Regarding `CC1=CCC(C(C)(C)O)CC1` (stereo not drawn) [Alpha-Terpineol], the activation at 100 µM under setting [1] stood at 15.8%. Further, the activation under setting [2] was 60.5%.

With `O=C1CCCCCCCCCCCC(=O)OCCO1` [Ethylene Brassylate], under setting [1], the activation at 100 µM was -0.58%. Further, under setting [2], the activation turned out to be 37.2%.

In the case of `CCCCCCOC(=O)C(C)CC` (stereo not shown) [Hexyl-2-Methylbutyrate], the activation at 100 µM under setting [1] is -0.38%. Moreover, the activation under setting [2] turned out to be 67.1%.

Regarding `CCC=C1OC(=O)c2ccccc21` [3-Propylidenephthalide], the activation at 100 µM under setting [1] was determined as 116%. Under setting [2], the activation was 6.21%.

Consider `COC(=O)/C=C/c1ccccc1` [Methyl trans-Cinnamate], for which the activation at 100 µM under setting [1] was -16.8%. Besides, the activation under setting [2] was 69.4%.

On to `CCCCCC=CC=CC(=O)OCCC` [Propyl 2,4-Decadienoate], for which, under setting [1], the activation at 100 µM was -15.7%. Also, under setting [2], the activation is 105%.

As to `C=CCOC(=O)CCC1CCCCC1` [Allyl Cyclohexanepropionate], the activation at 100 µM under setting [1] came to 0.45%. The activation under setting [2] stood at 81.7%.

Turning to `C=C1C2CCC(C2)C1(C)C` (stereo not shown) [Camphene], under setting [1], the activation at 100 µM was -1.43%. For the same molecule, the activation under setting [2] amounted to 96.5%.

Turning to `c1ccc2scnc2c1` [Benzothiazole], under setting [1], the activation at 100 µM is -2.29%. Also, under setting [2], the activation is 81.5%.

With `CCCCCCO` [Hexyl Alcohol], under setting [1], the activation at 100 µM is -0.22%. The activation under setting [2] came to 66.2%.

In the case of `CC/C=C/C=C/C=O` [Trans,trans-2,4-Heptadienal], under setting [1], the activation at 100 µM is 119%. Also, under setting [2], the activation is -3.68%.

Regarding `CC(=O)[O-].CC(=O)[O-].[Zn+2]` [Zinc Acetate], the “TRPA1 Direct addition” value was −0.66% and the “TRPA1 Pre-incubation” value is 21.67%.

With `CC(C)=CCCC(C)C=O` (stereo not shown) [2,6-Dimethyl-5-Heptenal], the activation at 100 µM under setting [1] is -0.15% and the activation at 100 µM under setting [2] was 97.6%.

`CC1OCCC1=O` (stereo not shown) [2-Methyltetrahydrofuran-3-one]: the activation at 100 µM under setting [1] was -1.5%. In addition, the activation under setting [2] worked out at 77.5%.

With `C=CCOC(=O)CCCCC` [Allyl Hexanoate], the activation at 100 µM under setting [1] is 0.75%. Under setting [2], the activation stood at 88.1%.

Regarding `CC(C)CCOC(=O)CC(C)C` [Isoamyl Isovalerate], under setting [1], the activation at 100 µM was 0.18%. The activation under setting [2] came out at 59.6%.

Take `CCCCCC/C=C/C=O` [Trans-2-Nonenal]: the activation at 100 µM under setting [1] is 123%. Also, under setting [2], the activation is 23.3%.

For `CC/C=C\CCCCCO` [cis-6-Nonen-1-ol], the activation at 100 µM under setting [1] stood at 2.38%. Also, the activation under setting [2] amounted to 98%.

With `CC1=CCC(C(C)C)=CC1` [Gamma-Terpinene], the activation at 100 µM under setting [1] worked out at 0.21%. Besides, under setting [2], the activation worked out at 61.5%.

For the molecule `CCCCCOC(=O)c1ccco1` [Amyl 2-Furoate], the activation at 100 µM under setting [1] is -2.39%. Further, the activation under setting [2] was 74.1%.

With `C=CCOC(=O)CCC` [Allyl Butyrate], the activation at 100 µM under setting [1] is 0.02%. Besides, the activation under setting [2] turned out to be 98%.

For the molecule `CC/C=C\CCOC(=O)CCC` [cis-3-Hexenyl Butyrate], under setting [1], the activation at 100 µM was -0.46%. Also, the activation under setting [2] stood at 87.9%.

As for `CCOC(=O)C(C)CC` (stereo not shown) [Ethyl 2-Methylbutyrate], under setting [1], the activation at 100 µM amounted to 0.26%. The activation under setting [2] turned out to be 82%.

On to `CC1=C(O)C(=O)OC1C` (stereo not shown) [4,5-Dimethyl-3-Hydroxy-2,5-Dihydrofuran-2-one], for which, under setting [1], the activation at 100 µM amounted to 0.18%. Moreover, the activation under setting [2] was found to be 89.1%.

Turning to `CC(C)=CC=O` [3-Methyl-2-Butenal], under setting [1], the activation at 100 µM was found to be 34.4%. The activation under setting [2] came out at 66.3%.

With `C=CC(C)(CCC=C(C)C)OC(C)=O` (stereo not shown) [Linalyl Acetate], the activation at 100 µM under setting [1] was -0.9%. Moreover, the activation under setting [2] is 77.2%.

Take `COc1cc(/C=C/C(=O)O)ccc1O` [Trans-Ferulic Acid]: the activation at 100 µM under setting [1] was -2.53%. The activation under setting [2] came out at 85.6%.

As for `COc1ccc(CCC(C)=O)cc1` [4-(4-Methoxyphenyl)-2-Butanone], the activation at 100 µM under setting [1] was -3.93%. Besides, the activation under setting [2] stood at 71.3%.

In the case of `CC/C=C\CCOC(=O)C/C=C\CC` [cis-3-Hexenyl cis-3-Hexenoate, [(Z)-hex-3-enyl] (Z)-hex-3-enoate], the activation at 100 µM under setting [1] was -1.04%. Besides, the activation under setting [2] turned out to be 122%.

For `CC(=O)OCc1ccc2c(c1)OCO2` [Piperonyl Acetate], the activation at 100 µM is, setting by setting: (HEK293, read-out: TRPA1 Direct addition) -0.28%; (HEK293, read-out: TRPA1 Pre-incubation) 102%.

In the case of `O=Cc1ccccc1` [Benzaldehyde], the activation at 100 µM under setting [1] was -1.46%. Besides, under setting [2], the activation is 90.1%.

As to `CC(=O)OCCc1scnc1C` [4-Methyl-5-Thiazoleethanol Acetate], under setting [1], the activation at 100 µM was 0.62%. Besides, the activation under setting [2] worked out at 76.4%.

Regarding `CCOC(=O)CC(O)(CC(=O)OCC)C(=O)OCC` [Triethyl Citrate], the activation at 100 µM under setting [1] is -9.43%. In addition, under setting [2], the activation is 82.2%.

Consider `CCCC(=O)C(C)=O` [2,3-Hexanedione], for which the activation at 100 µM under setting [1] was -0.19%. Moreover, under setting [2], the activation was 101%.

As for `CC/C=C\CCOC(=O)CCCCC` [cis-3-Hexenyl Hexanoate], under setting [1], the activation at 100 µM was 0.08%. For the same molecule, the activation under setting [2] worked out at 106%.

With `COC(Cc1ccccc1)OC` [Phenylacetaldehyde Dimethyl Acetal], the activation at 100 µM under setting [1] was -14.8%. For the same molecule, the activation under setting [2] came to 81.4%.

In the case of `CCOC(=O)CC(C)C` [Ethyl Isovalerate], the activation at 100 µM under setting [1] is -0.05%. Further, the activation under setting [2] was 62.8%.

Turning to `CC(C)CC(=O)OC1CC2CCC1(C)C2(C)C` (stereo not shown) [Bornyl Isovalerate], the activation at 100 µM under setting [1] was -1.36%. Further, the activation under setting [2] was 72.5%.

Turning to `CC1=C(CC=O)C(C)(C)CCC1` [2,6,6-Trimethyl-1-cyclohexene-1-acetaldehyde], under setting [1], the activation at 100 µM was -0.32%. For the same molecule, the activation under setting [2] came out at 106%.

With `CCCCCC(=O)OCC(C)C` [Isobutyl Hexanoate], under setting [1], the activation at 100 µM is -17.1%. In addition, the activation under setting [2] turned out to be 53.1%.

For `CCCCCO` [Amyl Alcohol], the activation at 100 µM under setting [1] is -1.94%. In addition, the activation under setting [2] turned out to be 85.9%.

Take `CC(=O)OCCc1ccccc1` [Phenylethyl Acetate]: the activation at 100 µM under setting [1] was -22.5%. The activation under setting [2] is 93.8%.
